Source: PubChem BioAssay (NCI)
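In this assay, cells in 96-well plates receive the compound at five concentrations for 48 hours. Endpoints are linearly interpolated between the surrounding concentrations. TGI denotes the concentration required for complete inhibition of growth.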

Assays:
Experiment in all cases: DTP human tumour cell line panel, 48 h
786-0 renal = tested on: 786-0 renal
A498 renal = tested on: A498 renal
A549 NSCLC = tested on: A549 NSCLC
ACHN renal = tested on: ACHN renal
BT-549 breast = tested on: BT-549 breast
CAKI-1 renal = tested on: CAKI-1 renal
CCRF-CEM leukemia = tested on: CCRF-CEM leukemia
COLO 205 colon = tested on: COLO 205 colon
DU-145 prostate = tested on: DU-145 prostate
EKVX NSCLC = tested on: EKVX NSCLC
HCT-116 colon = tested on: HCT-116 colon
HCT-15 colon = tested on: HCT-15 colon
HL-60(TB) leukemia = tested on: HL-60(TB) leukemia
HOP-62 NSCLC = tested on: HOP-62 NSCLC
HOP-92 NSCLC = tested on: HOP-92 NSCLC
HS 578T breast = tested on: HS 578T breast
HT29 colon = tested on: HT29 colon
IGROV1 ovarian = tested on: IGROV1 ovarian
K-562 leukemia = tested on: K-562 leukemia
KM12 colon = tested on: KM12 colon
LOX IMVI melanoma = tested on: LOX IMVI melanoma
M14 melanoma = tested on: M14 melanoma
MALME-3M melanoma = tested on: MALME-3M melanoma
MCF7 breast = tested on: MCF7 breast
MDA-MB-231 breast = tested on: MDA-MB-231 breast
MDA-MB-435 = tested on: MDA-MB-435
MDA-N = tested on: MDA-N
NCI-H226 lung = tested on: NCI-H226 lung
NCI-H23 lung = tested on: NCI-H23 lung
NCI-H460 lung = tested on: NCI-H460 lung
NCI-H522 lung = tested on: NCI-H522 lung
NCI/ADR-RES ovarian = tested on: NCI/ADR-RES ovarian
OVCAR-3 ovarian = tested on: OVCAR-3 ovarian
OVCAR-4 ovarian = tested on: OVCAR-4 ovarian
OVCAR-5 ovarian = tested on: OVCAR-5 ovarian
OVCAR-8 ovarian = tested on: OVCAR-8 ovarian
PC-3 prostate = tested on: PC-3 prostate
RPMI-8226 leukemia = tested on: RPMI-8226 leukemia
RXF 393 renal = tested on: RXF 393 renal
SF-268 CNS = tested on: SF-268 CNS
SF-295 CNS = tested on: SF-295 CNS
SF-539 CNS = tested on: SF-539 CNS
SK-MEL-2 melanoma = tested on: SK-MEL-2 melanoma
SK-MEL-28 melanoma = tested on: SK-MEL-28 melanoma
SK-MEL-5 melanoma = tested on: SK-MEL-5 melanoma
SN12C renal = tested on: SN12C renal
SNB-19 CNS = tested on: SNB-19 CNS
SR leukemia = tested on: SR leukemia
SW-620 colon = tested on: SW-620 colon
T-47D breast = tested on: T-47D breast
TK-10 renal = tested on: TK-10 renal
U251 CNS = tested on: U251 CNS
UACC-257 melanoma = tested on: UACC-257 melanoma
UACC-62 melanoma = tested on: UACC-62 melanoma
UO-31 renal = tested on: UO-31 renal
HCC-2998 colon = tested on: HCC-2998 colon
SK-OV-3 ovarian = tested on: SK-OV-3 ovarian
SNB-75 CNS = tested on: SNB-75 CNS
MOLT-4 leukemia = tested on: MOLT-4 leukemia

O=C(/C=C/c1ccc(O)cc1)NCCc1ccc(O)cc1
TGI (786-0 renal): > 12.5 µM
TGI (A498 renal): > 12.5 µM
TGI (A549 NSCLC): > 12.5 µM
TGI (ACHN renal): > 12.5 µM
TGI (BT-549 breast): > 12.5 µM
TGI (CAKI-1 renal): > 12.5 µM
TGI (CCRF-CEM leukemia): 11.4 µM
TGI (COLO 205 colon): > 12.5 µM
TGI (DU-145 prostate): > 12.5 µM
TGI (EKVX NSCLC): > 12.5 µM
TGI (HCT-116 colon): > 12.5 µM
TGI (HCT-15 colon): > 12.5 µM
TGI (HL-60(TB) leukemia): > 12.5 µM
TGI (HOP-62 NSCLC): > 12.5 µM
TGI (HOP-92 NSCLC): > 12.5 µM
TGI (HS 578T breast): > 12.5 µM
TGI (HT29 colon): > 12.5 µM
TGI (IGROV1 ovarian): > 12.5 µM
TGI (K-562 leukemia): > 12.5 µM
TGI (KM12 colon): > 12.5 µM
TGI (LOX IMVI melanoma): > 12.5 µM
TGI (M14 melanoma): > 12.5 µM
TGI (MALME-3M melanoma): > 12.5 µM
TGI (MCF7 breast): > 12.5 µM
TGI (MDA-MB-231 breast): > 12.5 µM
TGI (MDA-MB-435): > 12.5 µM
TGI (MDA-N): > 12.5 µM
TGI (NCI-H226 lung): > 12.5 µM
TGI (NCI-H23 lung): > 12.5 µM
TGI (NCI-H460 lung): > 12.5 µM
TGI (NCI-H522 lung): > 12.5 µM
TGI (NCI/ADR-RES ovarian): > 12.5 µM
TGI (OVCAR-3 ovarian): > 12.5 µM
TGI (OVCAR-4 ovarian): > 12.5 µM
TGI (OVCAR-5 ovarian): > 12.5 µM
TGI (OVCAR-8 ovarian): > 12.5 µM
TGI (PC-3 prostate): > 12.5 µM
TGI (RPMI-8226 leukemia): > 12.5 µM
TGI (RXF 393 renal): > 12.5 µM
TGI (SF-268 CNS): > 12.5 µM
TGI (SF-295 CNS): > 12.5 µM
TGI (SF-539 CNS): 11.1 µM
TGI (SK-MEL-2 melanoma): > 12.5 µM
TGI (SK-MEL-28 melanoma): > 12.5 µM
TGI (SK-MEL-5 melanoma): > 12.5 µM
TGI (SN12C renal): > 12.5 µM
TGI (SNB-19 CNS): > 12.5 µM
TGI (SR leukemia): > 12.5 µM
TGI (SW-620 colon): > 12.5 µM
TGI (T-47D breast): > 12.5 µM
TGI (TK-10 renal): > 12.5 µM
TGI (U251 CNS): > 12.5 µM
TGI (UACC-257 melanoma): > 12.5 µM
TGI (UACC-62 melanoma): > 12.5 µM
TGI (UO-31 renal): > 12.5 µM

CC1(C)OCC(C2OC(N3O[C@H](CI)C[C@@H]3c3ccccc3)C3OC(C)(C)OC23)O1 (stereo partly drawn)
TGI (786-0 renal): > 100 µM
TGI (A498 renal): > 100 µM
TGI (A549 NSCLC): > 100 µM
TGI (ACHN renal): > 100 µM
TGI (BT-549 breast): > 100 µM
TGI (CAKI-1 renal): > 100 µM
TGI (CCRF-CEM leukemia): > 100 µM
TGI (COLO 205 colon): > 100 µM
TGI (DU-145 prostate): > 100 µM
TGI (EKVX NSCLC): > 100 µM
TGI (HCC-2998 colon): > 100 µM
TGI (HCT-116 colon): > 100 µM
TGI (HCT-15 colon): > 100 µM
TGI (HL-60(TB) leukemia): > 100 µM
TGI (HOP-62 NSCLC): > 100 µM
TGI (HOP-92 NSCLC): > 100 µM
TGI (HS 578T breast): > 100 µM
TGI (HT29 colon): > 100 µM
TGI (IGROV1 ovarian): > 100 µM
TGI (K-562 leukemia): > 100 µM
TGI (KM12 colon): > 100 µM
TGI (LOX IMVI melanoma): > 100 µM
TGI (M14 melanoma): > 100 µM
TGI (MALME-3M melanoma): > 100 µM
TGI (MCF7 breast): > 100 µM
TGI (MDA-MB-231 breast): > 100 µM
TGI (MDA-MB-435): > 100 µM
TGI (MDA-N): > 100 µM
TGI (NCI-H23 lung): > 100 µM
TGI (NCI-H460 lung): > 100 µM
TGI (NCI-H522 lung): > 100 µM
TGI (NCI/ADR-RES ovarian): > 100 µM
TGI (OVCAR-3 ovarian): > 100 µM
TGI (OVCAR-4 ovarian): > 100 µM
TGI (OVCAR-5 ovarian): > 100 µM
TGI (PC-3 prostate): > 100 µM
TGI (RPMI-8226 leukemia): > 100 µM
TGI (RXF 393 renal): > 100 µM
TGI (SF-268 CNS): > 100 µM
TGI (SF-295 CNS): > 100 µM
TGI (SF-539 CNS): > 100 µM
TGI (SK-MEL-2 melanoma): > 100 µM
TGI (SK-MEL-28 melanoma): > 100 µM
TGI (SK-MEL-5 melanoma): > 100 µM
TGI (SK-OV-3 ovarian): > 100 µM
TGI (SN12C renal): > 100 µM
TGI (SNB-19 CNS): > 100 µM
TGI (SNB-75 CNS): > 100 µM
TGI (SR leukemia): > 100 µM
TGI (SW-620 colon): > 100 µM
TGI (T-47D breast): > 100 µM
TGI (TK-10 renal): > 100 µM
TGI (U251 CNS): > 100 µM
TGI (UACC-257 melanoma): > 100 µM
TGI (UACC-62 melanoma): > 100 µM
TGI (UO-31 renal): > 100 µM

Cc1ccccc1N(C)S(=O)(=O)c1ccccc1[N+](=O)[O-]
TGI (786-0 renal): > 100 µM
TGI (A549 NSCLC): > 100 µM
TGI (ACHN renal): > 100 µM
TGI (BT-549 breast): > 100 µM
TGI (CAKI-1 renal): > 100 µM
TGI (CCRF-CEM leukemia): > 100 µM
TGI (COLO 205 colon): > 100 µM
TGI (DU-145 prostate): > 100 µM
TGI (EKVX NSCLC): > 100 µM
TGI (HCC-2998 colon): > 100 µM
TGI (HCT-116 colon): > 100 µM
TGI (HCT-15 colon): > 100 µM
TGI (HL-60(TB) leukemia): > 100 µM
TGI (HOP-62 NSCLC): > 100 µM
TGI (HS 578T breast): > 100 µM
TGI (HT29 colon): > 100 µM
TGI (IGROV1 ovarian): > 100 µM
TGI (K-562 leukemia): > 100 µM
TGI (KM12 colon): > 100 µM
TGI (LOX IMVI melanoma): > 100 µM
TGI (M14 melanoma): > 100 µM
TGI (MALME-3M melanoma): > 100 µM
TGI (MCF7 breast): > 100 µM
TGI (MDA-MB-231 breast): > 100 µM
TGI (MDA-MB-435): > 100 µM
TGI (MDA-N): > 100 µM
TGI (MOLT-4 leukemia): > 100 µM
TGI (NCI-H226 lung): > 100 µM
TGI (NCI-H23 lung): > 100 µM
TGI (NCI-H460 lung): > 100 µM
TGI (NCI-H522 lung): > 100 µM
TGI (NCI/ADR-RES ovarian): > 100 µM
TGI (OVCAR-3 ovarian): > 100 µM
TGI (OVCAR-4 ovarian): > 100 µM
TGI (OVCAR-5 ovarian): > 100 µM
TGI (OVCAR-8 ovarian): > 100 µM
TGI (PC-3 prostate): > 100 µM
TGI (RPMI-8226 leukemia): > 100 µM
TGI (RXF 393 renal): 83 µM
TGI (SF-268 CNS): > 100 µM
TGI (SF-295 CNS): > 100 µM
TGI (SF-539 CNS): > 100 µM
TGI (SK-MEL-2 melanoma): > 100 µM
TGI (SK-MEL-28 melanoma): > 100 µM
TGI (SK-MEL-5 melanoma): 30.7 µM
TGI (SK-OV-3 ovarian): > 100 µM
TGI (SN12C renal): > 100 µM
TGI (SNB-19 CNS): > 100 µM
TGI (SNB-75 CNS): > 100 µM
TGI (SR leukemia): > 100 µM
TGI (SW-620 colon): > 100 µM
TGI (T-47D breast): > 100 µM
TGI (TK-10 renal): > 100 µM
TGI (U251 CNS): > 100 µM
TGI (UACC-257 melanoma): > 100 µM
TGI (UACC-62 melanoma): > 100 µM
TGI (UO-31 renal): > 100 µM
